According to paper PMC11574021, “CEP192 localises mitotic Aurora-A activity by priming its interaction with TPX2” (The EMBO Journal, 2024):

Tested on: LATS2-pS83 in U251 cells
Test: Immunofluorescence, LATS2-pS83 spindle pole signal intensity, U251
Type: cell-based, Homo sapiens
Conditions: for centrosomal LATS2-pS83 signal: U251, siRNA 48 h or Aurora-A inhibitor 30 min (250 nM), immunofluorescence
Method: As noted in the figures, the following drugs were incubated with cells for 30 min at 37 °C: Aurora-B-i ZM447439 2 µM [10 mM], PLK1-I BI2536 1 µM [10 mM] and Aurora-A-i MLN8237 [5 mM] was used at 250 and 500 nM in U251 and RPE1 cells, respectively. Drugs were resuspended in DMSO to the stock concentrations indicated in square brackets. BI2536 (HY-50698), MLN8237 (HY-10971) and ZM447439 (HY-10128) were all purchased from MedChemExpress. For western blotting, a 20-min pre-treatment with proteasome inhibitor (20 µM MG-132, MerckMillipore, 47490 [20 mM]) was required prior to the addition of DMSO control or kinase inhibitors. This prevented mitotic exit as a consequence of checkpoint override following Aurora-A and Aurora-B inhibitor addition.
siRNA depletion was carried out by reverse transfection using oligofectamine (Thermo Scientific, 12252011) and lipofectamine RNAiMax (Thermo Scientific, 13778075), according to the manufacturer’s instructions, for U251 and RPE1 cells, respectively. For immunofluorescence, 1 × 10^5 cells were seeded in six-well plates and simultaneously transfected with 60 pmol siRNA duplex and 3 µl transfection reagent diluted in 200 µl Opti-MEM serum-free medium. Growth medium was added to a final volume of 2 ml. For western blotting, 1 × 10^6 cells were seeded in 10 cm dishes and transfected with 300 pmol siRNA duplex and 15 µl transfection reagent diluted in 1000 µl Opti-MEM. Growth medium was added to a final volume of 10 ml. Cells were incubated with siRNA for 48 h prior to fixation or harvesting. As a negative control (siControl) Silencer select negative control No.1 siRNA was transfected as above. For TACC3 depletion, where two siRNA duplexes were used, 40 pmol of each was transfected per well.
For siRNA depletion, 1 × 10^5 cells were seeded in six-well plates and transfected as described above for 48 h prior to fixation. For all other experiments, 2.5 × 10^5 cells were seeded in six-well plates and grown for 24 h before fixation. All cells were grown on 12 mm diameter glass coverslips (VWR, 631–1577). Cells in Fig. EV4A were fixed using 4% (wt/v) paraformaldehyde (PFA) in PBS for 12 min, followed by 10 min quenching in 50 mM NH4Cl in PBS and 5 min of permeabilization with 0.2% (v/v) Triton X-100 in PBS, all at room temperature. For centriole staining in Fig. EV4E, cells were fixed in pre-chilled methanol for 10 min at −20 °C, incubated in PBS for 10 min and then 5 min in 0.5% Triton-X-100, 0.5% Tween, 0.05% SDS in PBS (v/v). To observe centromere and kinetochore staining in Fig. 7C and Appendix Fig. S8A, cells were fixed with PTEMF buffer (20 mM PIPES pH 6.8, 0.2% (v/v) Triton X-100, 10 mM EGTA, 1 mM MgCl2, 4% PFA (wt/v) in PBS) for 12 min at room temperature. […]

| Molecule | reduction of p-LATS2 (pS83) intensity (U251, Aurora-A inhibition 30 min, authors' response to referees) [%] | centrosomal LATS2-pS83 signal |
| --- | --- | --- |
| COc1cc(Nc2ncc3c(n2)-c2ccc(Cl)cc2C(c2c(F)cccc2OC)=NC3)ccc1C(=O)O [Alisertib] | > 80 | obliterated |
| 5′-CGGUAGUGAUAAAAGCUCAtt-3′ [siTPX2] | – | reducing LATS2 phosphorylation |
| 5′-CAAACAACUUGGAAAUCGAtt-3′ [siCEP192] | – | reducing LATS2 phosphorylation |
